We go through 5 compounds from patent US5116848A, “N-(((2,6-disubstituted)phenyl)-N-diarylalkyl)ureas as antihyperlipidemic and antiatherosclerotic agents” (priority 1988, dated 1992).

Assay [1] concerns the target T1, acyl-CoA:cholesterol acyltransferase (ACAT) (Oryctolagus cuniculus, UniProt G1SFD9).
T1 construct: a tissue preparation containing rabbit intestinal microsomes; from tissue; host or cells: rabbit intestinal microsomes
T1 sequence (G1SFD9 1-524): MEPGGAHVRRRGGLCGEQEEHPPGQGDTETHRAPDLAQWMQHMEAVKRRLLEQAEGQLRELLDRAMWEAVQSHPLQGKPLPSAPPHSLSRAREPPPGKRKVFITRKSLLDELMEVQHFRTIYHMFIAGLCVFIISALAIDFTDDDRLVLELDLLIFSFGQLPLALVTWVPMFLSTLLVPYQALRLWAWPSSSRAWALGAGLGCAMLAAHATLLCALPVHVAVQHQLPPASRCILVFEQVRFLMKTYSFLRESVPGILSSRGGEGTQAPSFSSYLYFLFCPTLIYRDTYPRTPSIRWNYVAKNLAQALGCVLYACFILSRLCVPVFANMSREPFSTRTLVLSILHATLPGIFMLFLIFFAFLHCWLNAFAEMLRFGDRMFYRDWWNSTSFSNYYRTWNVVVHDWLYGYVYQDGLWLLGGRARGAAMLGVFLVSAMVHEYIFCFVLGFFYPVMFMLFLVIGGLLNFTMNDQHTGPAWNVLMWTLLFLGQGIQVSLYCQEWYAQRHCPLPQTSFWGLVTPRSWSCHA
Briefly: in vitro ACAT inhibition test (radiolabeled cholesterol oleate formed from radiolabeled oleic acid, rabbit intestinal microsomes). The note with it: inhibition of acylation of cholesterol by oleic acid. The format is biochemical. The text has this: As shown by the data presented below in Table 1, the compounds of the present invention are potent inhibitors of the enzyme acyl-CoA:cholesterolacyltransferase (ACAT), and are thus effective in inhibiting the esterification and transport of cholesterol across the intestinal cell wall. The compounds of the present invention are thus useful in pharmaceutical formulations for the treatment of hypercholesterolemia or atherosclerosis. The ability of representative compounds of the present invention to inhibit ACAT was measured using an in vitro test more fully described in Field, F. J. and Salone, R. G., Biochemica et Biophysica 712:557-570 (1982). The test assesses the ability of a test compound to inhibit the acylation of cholesterol by oleic acid by measuring the amount of radio-labeled cholesterol oleate formed from radiolabeled oleic acid in a tissue preparation containing rabbit intestinal microsomes. The data appear in Table 1 where they are expressed as IC50 values; i.e. the concentration of test compound required to inhibit 50% expression of the enzyme.

A short description of assay [2]: PCC in vivo screen, blood total cholesterol in cholesterol-fed rats. The note with it: male Sprague-Dawley rats, diet with 5.5% peanut oil, 1.5% cholesterol, 0.3%-0.5% cholic acid, 0.05% drug in diet, one week. An excerpt:
In one in vivo screen, designated PCC, male Sprague-Dawley rats (approximately 200 g body weight) are randomly divided into groups and provided ad libidum a regular chow diet (Purina No. 5002, Ralston Purina Co., 711 West Fuesser Road, Mascoutah, Ill., 62224, USA), supplemented with 5.5% peanut oil, 1.5% cholesterol, and 0.3%-0.5% cholic acid, together with 0.05% of the test drug which is admixed into the diet. After one week the animals are etherized and a blood sample is taken from the heart and mixed with 0.14% ethylenediamine tetraacetic acid (EDTA) to measure the total cholesterol.

For orientation: IC50 means the concentration at which inhibition is half-maximal. A low value points to higher potency. The compound `CCc1cccc(CC)c1NC(=O)NC(Cc1ccccc1)c1ccccc1` (stereo not shown) [Example 1, N-(2,6-Diethylphenyl)-N'-(1,2-diphenylethyl)urea] had an IC50 in assay [1] of 93 nM. Moreover, in assay [2], the “Blood Cholesterol” value stood at 147 mg/dL and the “Blood Cholesterol % Change” value is on record as -29%.

Compound `CCc1cccc(CC)c1NC(=O)NC(c1ccccc1)c1ccccc1` [Example 2, N-(2,6-Diethylphenyl)-N'-(diphenylmethyl)urea] gave an IC50 in assay [1] of 80 nM. Further, in assay [2], the “Blood Cholesterol” value was 127 mg/dL and the “Blood Cholesterol % Change” value was -43%.

As for `CCc1cccc(CC)c1NC(=O)NCC(c1ccccc1)c1ccccc1` [Example 3, N-(2,6-Diethylphenyl)-N'-(2,2-diphenylethyl)urea], it took 91 nM to reach half-maximal inhibition in assay [1] (IC50). In assay [2], the “Blood Cholesterol” value was 105 mg/dL and the “Blood Cholesterol % Change” value was -53%.

Regarding `CC(C)c1cccc(C(C)C)c1NC(=O)NCC(c1ccccc1)c1ccccc1` [Example 4, N-[2,6-bis(1-methylethyl)phenyl]-N'-(2,2-diphenylethyl)urea], inhibition in assay [1] was half-maximal at 24 nM (IC50). For the same compound, in assay [2], the “Blood Cholesterol” value is 95 mg/dL and the “Blood Cholesterol % Change” value was -52%.

As for `CC(C)c1cccc(C(C)C)c1NC(=O)NC(c1ccccc1)c1ccccc1` [Example 5, N-[2,6-bis(1-methylethyl)phenyl)-N'-(diphenylmethyl)urea], in assay [1], half-maximal inhibition (IC50) was put at 45 nM.
